Data as given in US12012409B2, “Bicyclic heterocycles as FGFR inhibitors” (Incyte Corporation, priority 2020, dated 2024).

Key:
Type in all cases: biochemical
Conditions in all cases: wild-type un-phosphorylated protein; pre-incubated for 4 hours; ATP near or below Km
[1] = biological target: wild-type un-phosphorylated FGFR1 (Homo sapiens, UniProt P11362); assay: FGFR Enzymatic Assay (FRET peptide phosphorylation), FGFR1
Procedure: (§1) The inhibitor potency of the exemplified compounds was determined in an enzyme discontinuous assay that measures peptide phosphorylation using FRET measurements to detect product formation. Inhibitors were serially diluted in DMSO and a volume of 0.2 μL was transferred to the wells of a 384-well plate. […] Appropriate controls (enzyme blank and enzyme with no inhibitor) were included on the plate. […] The ATP Km values were pre-determined in a separate series of experiments. […] The plate was allowed to equilibrate for ˜10 minutes at ambient temperature before scanning on a PheraStar plate reader (BMG Labtech) instrument.
(§2) Either GraphPad prism or XLfit was used to analyze the data. The IC50 values were derived by fitting the data to a four parameter logistic equation producing a sigmoidal dose-response curve with a variable Hill coefficient. Prism equation: Y=Bottom+(Top−Bottom)/(1+10^((LogIC50−X)*Hill slope)); XLfit equation: Y=(A+((B−A)/(1+((X/C)^D)))) where X is the logarithm of inhibitor concentration and Y is the response.

[2] = biological target: wild-type un-phosphorylated FGFR2 (Homo sapiens, UniProt P21802); assay: FGFR Enzymatic Assay (FRET peptide phosphorylation), FGFR2
Procedure: as §1, §2
The data in Table 1 was measured in wild-type un-phosphorylated FGFR1, FGFR2, FGFR3 and FGFR4 protein.

[3] = biological target: wild-type un-phosphorylated FGFR3 (Homo sapiens, UniProt P22607); assay: FGFR Enzymatic Assay (FRET peptide phosphorylation), FGFR3
Procedure: as §1, §2

Chain of wild-type un-phosphorylated FGFR2 (P21802 22-821): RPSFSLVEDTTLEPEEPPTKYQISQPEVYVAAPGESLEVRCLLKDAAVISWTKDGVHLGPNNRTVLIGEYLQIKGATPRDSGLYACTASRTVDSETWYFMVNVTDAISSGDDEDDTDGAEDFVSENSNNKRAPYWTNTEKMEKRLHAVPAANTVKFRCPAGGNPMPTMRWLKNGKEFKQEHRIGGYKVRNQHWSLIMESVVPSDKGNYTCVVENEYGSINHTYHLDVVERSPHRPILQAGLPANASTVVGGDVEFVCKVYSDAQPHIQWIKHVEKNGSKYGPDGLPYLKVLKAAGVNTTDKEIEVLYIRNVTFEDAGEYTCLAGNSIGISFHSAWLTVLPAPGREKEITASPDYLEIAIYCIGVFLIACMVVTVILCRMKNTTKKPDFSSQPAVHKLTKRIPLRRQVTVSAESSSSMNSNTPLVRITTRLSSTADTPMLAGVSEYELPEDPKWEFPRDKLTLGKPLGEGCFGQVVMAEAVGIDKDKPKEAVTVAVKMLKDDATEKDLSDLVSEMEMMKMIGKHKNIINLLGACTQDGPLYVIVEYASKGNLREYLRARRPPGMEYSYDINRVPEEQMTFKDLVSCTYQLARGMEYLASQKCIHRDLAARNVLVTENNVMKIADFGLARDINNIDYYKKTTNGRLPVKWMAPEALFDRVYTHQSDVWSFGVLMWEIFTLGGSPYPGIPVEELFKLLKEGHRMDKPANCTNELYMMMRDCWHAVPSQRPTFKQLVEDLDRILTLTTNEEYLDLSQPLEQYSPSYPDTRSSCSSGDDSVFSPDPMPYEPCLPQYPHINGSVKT
Chain of wild-type un-phosphorylated FGFR3 (P22607 23-806): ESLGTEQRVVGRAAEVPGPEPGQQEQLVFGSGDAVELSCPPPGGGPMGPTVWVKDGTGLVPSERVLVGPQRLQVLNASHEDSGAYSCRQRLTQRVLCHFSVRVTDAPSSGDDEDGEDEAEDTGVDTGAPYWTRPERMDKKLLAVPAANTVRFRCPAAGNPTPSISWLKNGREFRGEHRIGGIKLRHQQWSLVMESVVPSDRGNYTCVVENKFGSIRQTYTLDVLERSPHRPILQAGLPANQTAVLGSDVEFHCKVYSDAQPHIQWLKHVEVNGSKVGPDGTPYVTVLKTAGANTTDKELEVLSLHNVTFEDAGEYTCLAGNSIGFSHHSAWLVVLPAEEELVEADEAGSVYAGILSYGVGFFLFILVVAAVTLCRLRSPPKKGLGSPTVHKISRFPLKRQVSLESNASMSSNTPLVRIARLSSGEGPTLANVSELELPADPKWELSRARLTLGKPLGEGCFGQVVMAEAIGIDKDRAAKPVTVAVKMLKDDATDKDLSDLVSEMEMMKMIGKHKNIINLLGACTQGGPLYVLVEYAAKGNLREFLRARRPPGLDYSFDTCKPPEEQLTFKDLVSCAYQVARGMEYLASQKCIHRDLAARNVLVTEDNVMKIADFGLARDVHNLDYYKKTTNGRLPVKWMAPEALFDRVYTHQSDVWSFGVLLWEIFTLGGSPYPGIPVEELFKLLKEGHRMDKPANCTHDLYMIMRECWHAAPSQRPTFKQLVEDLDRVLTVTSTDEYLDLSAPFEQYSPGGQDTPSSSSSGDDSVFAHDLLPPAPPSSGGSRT
Chain of wild-type un-phosphorylated FGFR1 (P11362 22-822): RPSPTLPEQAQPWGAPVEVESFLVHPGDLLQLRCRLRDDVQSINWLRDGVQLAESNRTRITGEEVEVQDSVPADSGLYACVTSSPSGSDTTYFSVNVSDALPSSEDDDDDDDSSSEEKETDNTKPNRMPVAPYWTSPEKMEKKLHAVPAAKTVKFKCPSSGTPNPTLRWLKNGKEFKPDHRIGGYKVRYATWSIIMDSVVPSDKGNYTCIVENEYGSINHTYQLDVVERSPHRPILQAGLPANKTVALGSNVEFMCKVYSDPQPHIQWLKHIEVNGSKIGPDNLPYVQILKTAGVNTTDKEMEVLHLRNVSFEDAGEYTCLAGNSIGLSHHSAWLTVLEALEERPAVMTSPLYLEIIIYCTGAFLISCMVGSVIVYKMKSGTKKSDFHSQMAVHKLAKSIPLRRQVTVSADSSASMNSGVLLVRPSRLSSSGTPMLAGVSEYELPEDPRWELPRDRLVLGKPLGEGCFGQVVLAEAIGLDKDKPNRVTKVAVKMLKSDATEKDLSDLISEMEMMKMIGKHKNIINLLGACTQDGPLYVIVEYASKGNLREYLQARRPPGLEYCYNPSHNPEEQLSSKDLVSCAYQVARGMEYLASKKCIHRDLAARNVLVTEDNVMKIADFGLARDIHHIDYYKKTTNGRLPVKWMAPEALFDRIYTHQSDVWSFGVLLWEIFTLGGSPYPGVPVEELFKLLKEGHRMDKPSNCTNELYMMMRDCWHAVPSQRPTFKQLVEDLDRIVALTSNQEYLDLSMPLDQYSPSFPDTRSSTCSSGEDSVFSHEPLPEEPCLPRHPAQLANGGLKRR

Compound | IC50 [1] [nM] | IC50 [2] [nM] | IC50 [3] [nM]
CNC(=O)c1cc(-c2cnc3cc(-c4cnn(Cc5cccnc5)c4)c(O[C@H]4CCOC4)nn23)c(F)c(C(F)F)c1 [Example 29, (S)-3-(Difluoromethyl)-4-fluoro-N-methyl-5-(7-(1-(pyridin-3-ylmethyl)-1H-pyrazol-4-yl)-6-((tetrahydrofuran-3-yl)oxy)imidazo[1,2-b]pyridazin-3-yl)benzamide] | 10 to 100 | < 10 | < 10
CNC(=O)c1cncc(-c2cnc3cc(-c4ccc(N5CCN(C)CC5)cc4)c(O[C@H]4CCOC4)nn23)c1 [Example 68, (S)—N-Methyl-5-(7-(4-(4-methylpiperazin-1-yl)phenyl)-6-((tetrahydrofuran-3-yl)oxy)imidazo[1,2-b]pyridazin-3-yl)nicotinamide] | 10 to 100 | 10 to 100 | < 10
CNC(=O)c1cc(CC#N)c(F)c(-c2cnc3cc(-c4cnn(C)c4)c(O[C@H]4CCOC4)nn23)c1 [Example 44, (S)-3-(Cyanomethyl)-4-fluoro-N-methyl-5-(7-(1-methyl-1H-pyrazol-4-yl)-6-((tetrahydrofuran-3-yl)oxy)imidazo[1,2-b]pyridazin-3-yl)benzamide] | 100 to 400 | 10 to 100 | < 10
CNC(=O)c1cc(-c2cnc3cc(-c4cnn5c4CNCC5)c(O[C@H]4CCOC4)nn23)c(F)c(C(F)F)c1 [Example 28, (S)-3-(Difluoromethyl)-4-fluoro-N-methyl-5-(6-((tetrahydrofuran-3-yl)oxy)-7-(4,5,6,7-tetrahydropyrazolo[1,5-a]pyrazin-3-yl)imidazo[1,2-b]pyridazin-3-yl)benzamide] | ≥ 400 | 10 to 100 | 10 to 100
CCOc1cccc(-c2cnc3cc(-c4cnn(C)c4)c(O[C@H]4CCOC4)nn23)c1 [Example 47, (S)-3-(3-Ethoxyphenyl)-7-(1-methyl-1H-pyrazol-4-yl)-6-((tetrahydrofuran-3-yl)oxy)imidazo[1,2-b]pyridazine] | 10 to 100 | 10 to 100 | 10 to 100
CNC(=O)c1cc(-c2cnc3cc(-c4cnn(C)c4)c(O[C@H]4CCOC4)nn23)c(F)c(C(F)F)c1 [Example 41, (S)-3-(Difluoromethyl)-4-fluoro-N-methyl-5-(7-(1-methyl-1H-pyrazol-4-yl)-6-((tetrahydrofuran-3-yl)oxy)imidazo[1,2-b]pyridazin-3-yl)benzamide] | – | < 10 | –
CNC(=O)c1cc(F)c(F)c(-c2cnc3cc(-c4cnn(C5CCN(C(=O)N(C)C)CC5)c4)c(O[C@H]4CCOC4)nn23)c1 [Example 73, (S)-4-(4-(3-(2,3-Difluoro-5-(methylcarbamoyl)phenyl)-6-((tetrahydrofuran-3-yl)oxy)imidazo[1,2-b]pyridazin-7-yl)-1H-pyrazol-1-yl)-N,N-dimethylpiperidine-1-carboxamide] | < 10 | < 10 | < 10
CNC(=O)c1cc(F)c(F)c(-c2cnc3cc(-c4cnn(C5COC5)c4)c(O[C@H]4CCOC4)nn23)c1 [Example 23, (S)-3,4-Difluoro-N-methyl-5-(7-(1-(oxetan-3-yl)-1H-pyrazol-4-yl)-6-((tetrahydrofuran-3-yl)oxy)imidazo[1,2-b]pyridazin-3-yl)benzamide] | 10 to 100 | < 10 | < 10
CC(C)n1cc(-c2cc3ncc(-c4cccc(F)c4F)n3nc2O[C@H]2CCOC2)cn1 [Example 46, (S)-3-(2,3-Difluorophenyl)-7-(1-isopropyl-1H-pyrazol-4-yl)-6-((tetrahydrofuran-3-yl)oxy)imidazo[1,2-b]pyridazine] | 100 to 400 | 10 to 100 | 10 to 100
CNC(=O)c1cc(F)c(F)c(-c2cnc3cc(-c4ccc(C)nc4)c(O[C@H]4CCOC4)nn23)c1 [Example 21, (S)-3,4-Difluoro-N-methyl-5-(7-(6-methylpyridin-3-yl)-6-((tetrahydrofuran-3-yl)oxy)imidazo[1,2-b]pyridazin-3-yl)benzamide] | 100 to 400 | 10 to 100 | < 10
CNC(=O)c1cc(F)c(F)c(-c2cnc3cc(-c4cnn(C)c4)c(OCCOC)nn23)c1 [Example 20, 3,4-Difluoro-5-(6-(2-methoxyethoxy)-7-(1-methyl-1H-pyrazol-4-yl)imidazo[1,2-b]pyridazin-3-yl)-N-methylbenzamide] | 10 to 100 | < 10 | < 10
CNC(=O)c1cc(-c2cnc3cc(-c4ccc(C(C)(C)O)nc4)c(O[C@H]4CCOC4)nn23)c(F)c(C(F)F)c1 [Example 35, (S)-3-(Difluoromethyl)-4-fluoro-5-(7-(6-(2-hydroxypropan-2-yl)pyridin-3-yl)-6-((tetrahydrofuran-3-yl)oxy)imidazo[1,2-b]pyridazin-3-yl)-N-methylbenzamide] | 100 to 400 | 10 to 100 | < 10
CNC(=O)c1cncc(-c2cnc3cc(-c4ccc(NC(=O)OC)cc4)c(O[C@H]4CCOC4)nn23)c1 [Example 67, Methyl (S)-(4-(3-(5-(Methylcarbamoyl)pyridin-3-yl)-6-((tetrahydrofuran-3-yl)oxy)imidazo[1,2-b]pyridazin-7-yl)phenyl)carbamate] | 100 to 400 | 10 to 100 | 10 to 100
CNC(=O)c1cccc(-c2cnc3cc(-c4cnn(C)c4)c(O[C@H]4CCOC4)nn23)c1 [Example 63, (S)-N-Methyl-3-(7-(1-methyl-1H-pyrazol-4-yl)-6-((tetrahydrofuran-3-yl)oxy)imidazo[1,2-b]pyridazin-3-yl)benzamide] | – | < 10 | –
CNC(=O)c1cc(F)c(F)c(-c2cnc3cc(-c4cnn(C)c4)c(N[C@H]4CCOC4)nn23)c1 [Example 19, (S)-3,4-Difluoro-N-methyl-5-(7-(1-methyl-1H-pyrazol-4-yl)-6-((tetrahydrofuran-3-yl)amino)imidazo[1,2-b]pyridazin-3-yl)benzamide] | 10 to 100 | < 10 | < 10
CNC(=O)c1cncc(-c2cnc3cc(-c4cnn(C)c4)c(OC)nn23)c1 [Example 4, 5-(6-Methoxy-7-(1-methyl-1H-pyrazol-4-yl)imidazo[1,2-b]pyridazin-3-yl)-N-methylnicotinamide] | – | 100 to 400 | –
CNC(=O)c1cc(F)c(F)c(-c2cnc3cc(-c4cnn(C5CCC5)c4)c(O[C@H]4CCOC4)nn23)c1 [Example 25, (S)-3-(7-(1-Cyclobutyl-1H-pyrazol-4-yl)-6-((tetrahydrofuran-3-yl)oxy)imidazo[1,2-b]pyridazin-3-yl)-4,5-difluoro-N-methylbenzamide] | < 10 | < 10 | < 10
CNC(=O)c1cc(F)c(F)c(-c2cnc3cc(-c4cnn(C5CCN(S(=O)(=O)N(C)C)CC5)c4)c(O[C@H]4CCOC4)nn23)c1 [Example 76, (S)-3-(7-(1-(1-(N,N-Dimethylsulfamoyl)piperidin-4-yl)-1H-pyrazol-4-yl)-6-((tetrahydrofuran-3-yl)oxy)imidazo[1,2-b]pyridazin-3-yl)-4,5-difluoro-N-methylbenzamide] | < 10 | < 10 | < 10
CNC(=O)c1cc(-c2cnc3cc(-c4ccc(C)c(C#N)c4)c(O[C@H]4CCOC4)nn23)c(F)c(C(F)F)c1 [Example 31, (S)-3-(7-(3-Cyano-4-methylphenyl)-6-((tetrahydrofuran-3-yl)oxy)imidazo[1,2-b]pyridazin-3-yl)-5-(difluoromethyl)-4-fluoro-N-methylbenzamide] | ≥ 400 | 10 to 100 | 10 to 100
CNC(=O)c1cc(CN2CCCC2)c(F)c(-c2cnc3cc(-c4cnn(C)c4)c(O[C@H]4CCOC4)nn23)c1 [Example 45, (S)-4-Fluoro-N-methyl-3-(7-(1-methyl-1H-pyrazol-4-yl)-6-((tetrahydrofuran-3-yl)oxy)imidazo[1,2-b]pyridazin-3-yl)-5-(pyrrolidin-1-ylmethyl)benzamide] | 10 to 100 | 10 to 100 | 10 to 100
CNC(=O)c1cc(-c2cnc3cc(-c4ccc(N5CCCC5=O)nc4)c(O[C@H]4CCOC4)nn23)c(F)c(C(F)F)c1 [Example 33, (S)-3-(Difluoromethyl)-4-fluoro-N-methyl-5-(7-(6-(2-oxopyrrolidin-1-yl)pyridin-3-yl)-6-((tetrahydrofuran-3-yl)oxy)imidazo[1,2-b]pyridazin-3-yl)benzamide] | 100 to 400 | 10 to 100 | < 10
CNC(=O)c1cc(F)c(F)c(-c2cnc3cc(-c4cnn(C)c4)c(O[C@H]4CCOC4)nn23)c1 [Example 43, (S)-3,4-Difluoro-N-methyl-5-(7-(1-methyl-1H-pyrazol-4-yl)-6-((tetrahydrofuran-3-yl)oxy)imidazo[1,2-b]pyridazin-3-yl)benzamide] | – | < 10 | –
CNC(=O)c1cc(C)c(F)c(-c2cnc3cc(-c4cnn(C)c4)c(O[C@H]4CCOC4)nn23)c1 [Example 42, (S)-4-Fluoro-N,3-dimethyl-5-(7-(1-methyl-1H-pyrazol-4-yl)-6-((tetrahydrofuran-3-yl)oxy)imidazo[1,2-b]pyridazin-3-yl)benzamide] | – | < 10 | –
